Experimental data taken from patent US10138225B2 (Achillion Pharmaceuticals, Inc., priority 2015, dated 2018).
pIC50: −log10 of the molar value.

Molecular target: T1, Human Factor D (Homo sapiens, UniProt P00746)
T1 construct: purified from human serum; purchased Complement Technology, Inc; host or cells: human serum (natural protein, not recombinant)
Experiment: Human Factor D Assay
Assay type: biochemical
Settings: Table 1; Factor D 80 nM, substrate Z-L-Lys-SBzl; read-out: IC50
Description: Human Factor D (purified from human serum, Complement Technology, Inc.) at 80 nM final concentration is incubated with test compound at various concentrations for 5 minutes at room temperature in 50 mM Tris, 1M NaCl, pH 7.5. A synthetic substrate Z-L-Lys-SBzl and DTNB (Ellman's reagent) are added to final concentrations of 100 μM each. Absorbance at 405 nm (A405) is recorded at 30 second intervals for 30 minutes using a microplate spectrophotometer. IC50 values are calculated by nonlinear regression of complement Factor D reaction rates as a function of test compound concentration.

T1 sequence (P00746 26-253): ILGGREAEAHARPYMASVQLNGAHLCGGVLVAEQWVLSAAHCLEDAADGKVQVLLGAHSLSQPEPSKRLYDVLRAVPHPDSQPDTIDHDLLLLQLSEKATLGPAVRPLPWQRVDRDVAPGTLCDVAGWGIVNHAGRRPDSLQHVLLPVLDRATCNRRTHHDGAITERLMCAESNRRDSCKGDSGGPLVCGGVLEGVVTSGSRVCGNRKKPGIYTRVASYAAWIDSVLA

| SMILES | pIC50 |
| --- | --- |
| CC(=O)c1cn(CC(=O)N2C[C@H](F)C[C@H]2C(=O)NCc2cccc(Cl)c2F)c2ccc(NC(=O)NC3CC3)cc12 [Compound 1, (2S,4R)-1-(2-(3-acetyl-5-(3-cyclopropylureido)-1H-indol-1-yl)acetyl)-N-(3-chloro-2-fluorobenzyl)-4-fluoropyrrolidine-2-carboxamide] | > 6.00 |
| NC(=O)c1nn(CC(=O)N2C[C@H](F)C[C@H]2C(=O)Nc2cccc(Br)n2)c2ccc(NC(=O)N3CCCC(F)(F)C3)cc12 [Compound 33, 1-(2-((2S,4R)-2-(6-bromopyridin-2-ylcarbamoyl)-4-fluoropyrrolidin-1-yl)-2-oxoethyl)-5-(3,3-difluoropiperidine-1-carboxamido)-1H-indazole-3-carboxamide] | > 6.00 |
| NC(=O)c1nn(CC(=O)N2C[C@H](F)C[C@H]2C(=O)Nc2cccc(-c3ccccc3Cl)c2F)c2ccc(NC(=O)NCc3ncccn3)cc12 [Compound 32, 1-(2-((2S,4R)-2-(2′-chloro-2-fluorobiphenyl-3-ylcarbamoyl)-4-fluoropyrrolidin-1-yl)-2-oxoethyl)-5-(3-(pyrimidin-2-ylmethyl)ureido)-1H-indazole-3-carboxamide] | > 6.00 |
| CC(=O)c1cn(CC(=O)N2[C@@H]3C[C@@H]3C[C@H]2C(=O)N[C@H](C)c2cccc(Cl)c2F)c2ccc(NC(=O)NC3CC3)cc12 [Compound 5, (1R,3S,5R)-2-(2-(3-acetyl-5-(3-cyclopropylureido)-1H-indol-1-yl)acetyl)-N-((R)-1-(3-chloro-2-fluorophenyl)ethyl)-2-azabicyclo[3.1.0] hexane-3-carboxamide] | > 6.00 |
| CC(=O)c1cn(CC(=O)N2C[C@H](F)C[C@H]2C(=O)NCc2cccc(Cl)c2F)c2cc(C(=O)N3CCC(CN)C3)ccc12 (stereo partly drawn) [Compound 42, (2S,4R)-1-(2-(3-acetyl-6-(3-(aminomethyl)-pyrrolidine-1-carbonyl)-1H-indol-1-yl)acetyl)-N-(3-chloro-2-fluorobenzyl)-4-fluoropyrrolidine-2-carboxamide] | > 6.00 |
| NC(=O)c1nn(CC(=O)N2C[C@H](F)C[C@H]2C(=O)Nc2cccc(-c3ncccc3Cl)c2F)c2ccc(NC(=O)N3CCCC(F)(F)C3)cc12 [Compound 29, 1-(2-((2S,4R)-2-(3-(3-chloropyridin-2-yl)-2-fluorophenylcarbamoyl)-4-fluoropyrrolidin-1-yl)-2-oxoethyl)-5-(3,3-difluoropiperidine-1-carboxamido)-1H-indazole-3-carboxamide] | > 6.00 |
| CC(=O)c1cn(CC(=O)N2C[C@H](F)C[C@H]2C(=O)NCc2cccc(Cl)c2F)c2cc(C(=O)NCC3CCNC3)ccc12 (stereo partly drawn) [Compound 49, 3-acetyl-1-(2-((2S,4R)-2-(3-chloro-2-fluorobenzylcarbamoyl)-4-fluoropyrrolildin-1-yl)-2-oxoethyl)-N-(pyrrolidin-3-ylmethyl)-1H-indole-6-carboxamide] | > 6.00 |
| CC(=O)c1cn(CC(=O)N2C[C@H](F)C[C@H]2C(=O)NCc2cccc(Cl)c2F)c2cc(C(=O)NCC3CCN(C(=O)OC(C)(C)C)C3)ccc12 (stereo partly drawn) [Compound 50, tert-butyl 3-((3-acetyl-1-(2-((2S,4R)-2-(3-chloro-2-fluorobenzylcarbamoyl)-4-fluoropyrrolidin-1-yl)-2-oxoethyl)-1H-indole-6-carboxamido)methyl) pyrrolidine-1-carboxylate] | > 6.00 |
| CC(=O)c1cn(CC(=O)N2C[C@H](F)C[C@H]2C(=O)NCc2cccc(Cl)c2F)c2ccc(C(=O)N3CCCC(F)(F)C3)cc12 [Compound 40, (2S,4R)-1-(2-(3-acetyl-5-(3,3-difluoropiperidine-1-carbonyl)-1H-indol-1-yl)acetyl)-N-(3-chloro-2-fluorobenzyl)-4-fluoropyrrolidine-2-carboxamide] | > 6.00 |
| CC(=O)c1cn(CC(=O)N2C[C@H](F)C[C@H]2C(=O)NCc2cccc(Cl)c2F)c2cc(NC(=O)OC(C)(C)C)ccc12 [Compound 37, tert-butyl 3-acetyl-1-(2-((2S,4R)-2-(3-chloro-2-fluorobenzylcarbamoyl)-4-fluoropyrrolidin-1-yl)-2-oxoethyl)-1H-indol-6-ylcarbamate] | > 6.00 |
| CC(=O)c1cn(CC(=O)N2C[C@H](F)C[C@H]2C(=O)NCc2cccc(Cl)c2F)c2ccc(NC(=O)NC3(C)CC3)cc12 [Compound 4, (2S,4R)-1-(2-(3-acetyl-5-(3-(1-methylcyclopropyl)ureido)-1H-indol-1-yl)acetyl)-N-(3-chloro-2-fluorobenzyl)-4-fluoropyrrolidine-2-carboxamide] | > 6.00 |
| CC(=O)c1cn(CC(=O)N2C[C@H](F)C[C@H]2C(=O)NCc2cccc(Cl)c2F)c2ccc(NC(=O)Nc3cncnc3)cc12 [Compound 23, (2S,4R)-1-(2-(3-acetyl-5-(3-pyrimidin-5-ylureido)-1H-indol-1-yl)acetyl)-N-(3-chloro-2-fluorobenzyl)-4-fluoropyrrolidine-2-carboxamide] | > 6.00 |
| CC(=O)c1cn(CC(=O)N2C[C@H](F)C[C@H]2C(=O)NCc2cccc(Cl)c2F)c2cc(C(=O)N[C@H]3CCN(C(=O)OC(C)(C)C)C3)ccc12 [Compound 44, (S)-tert-butyl 3-(3-acetyl-1-(2-((2S,4R)-2-(3-chloro-2-fluorobenzyl-carbamoyl)-4-fluoropyrrolidin-1-yl)-2-oxoethyl)-1H-indole-6-carboxamido) pyrrolidine-1-carboxylate] | > 6.00 |
| NC(=O)c1nn(CC(=O)N2[C@@H]3C[C@@H]3C[C@H]2C(=O)Nc2cccc(-c3ccccc3Cl)c2F)c2ccc(NC(=O)N3CCCC(F)(F)C3)cc12 [Compound 28, 1-(2-((1R,3S,5R)-3-(2′-chloro-2-fluorobiphenyl-3-ylcarbamoyl)-2-azabicyclo[3.1.0]hexan-2-yl)-2-oxoethyl)-5-(3,3-difluoropiperidine-1-carboxamido)-1H-indazole-3-carboxamide] | > 6.00 |

Same assay, conditions: Table 3; factor D inhibition assay; read-out: IC50 (Stars)

| SMILES | pIC50 |
| --- | --- |
| CC(=O)c1cn(CC(=O)N2C[C@H](F)C[C@H]2C(=O)NCCc2ccccc2)c2ccc(NC(=O)N3CCCC(F)(F)C3)cc12 [Compound 197, N-(3-acetyl-1-(2-((2S,4R)-4-fluoro-2-(phenethylcarbamoyl)pyrrolidin-1-yl)-2-oxoethyl)-1H-indol-5-yl)-3,3-difluoropiperidine-1-carboxamide] | > 6.00 |
| CC(=O)c1cn(CC(=O)N2C[C@H](F)C[C@H]2CCNS(=O)(=O)c2ccccc2)c2ccc(NC(=O)N3CCCC(F)(F)C3)cc12 [Compound 201, N-(3-acetyl-1-(2-((2R,4R)-4-fluoro-2-(2-(phenylsulfonamido)ethyl)pyrrolidin-1-yl)-2-oxoethyl)-1H-indol-5-yl)-3,3-difluoro-piperidine-1-carboxamide] | 5.00 to 6.00 |
| CC(=O)c1cn(CC(=O)N2C[C@H](F)C[C@H]2C(=O)NCc2cccc(Cl)c2F)c2ccc(C(=O)NS(=O)(=O)C3CC3)cc12 [Compound 208, 3-acetyl-1-(2-((2S,4R)-2-((3-chloro-2-fluorobenzyl)carbamoyl)-4-fluoropyrrolidin-1-yl)-2-oxoethyl)-N-(cyclopropylsulfonyl)-1H-indole-5-carboxamide] | > 6.00 |
| CC(=O)c1cn(CC(=O)N2C[C@H](F)C[C@H]2C(=O)NCCCCc2ccccc2)c2ccc(NC(=O)N3CCCC(F)(F)C3)cc12 [Compound 199, N-(3-acetyl-1-(2-((2S,4R)-4-fluoro-2-((4-phenylbutyl)carbamoyl)pyrrolidin-1-yl)-2-oxoethyl)-1H-indol-5-yl)-3,3-difluoropiperidine-1-carboxamide] | > 6.00 |
